Several values for one entry are separate records, joined by “and”; a condition that tells them apart may be missing. Identical values can stand only once. HELM strings list units from the 5' end as sugar, base in round brackets, then linkage (d deoxyribose, r ribose, m 2'-O-methyl, p phosphodiester). Strings are as the collection lists them, not checked against the first reports. ss, as = sense and antisense strand; [lna] = locked nucleic acid (LNA); [una] = unlocked nucleic acid; [hna] = hexitol nucleic acid; [s4r] = 4'-thioribose; [fl2r] = 2'-fluoro
Conditions: siRNA
Note: test system not given here.

Substance	target mRNA knockdown
RNA1{m(U)p.r(C)p.m(U)p.r(A)p.m(C)p.r(A)p.m(C)p.r(C)p.m(G)p.r(C)p.m(G)p.r(C)p.m(C)p.r(C)p.m(C)p.r(C)p.m(C)p.r(U)p.m(C)p.r(T)p.r(T)}|RNA2{r(G)p.r(A)p.r(G)p.r(G)p.r(G)p.r(G)p.r(G)p.r(G)p.r(C)p.r(G)p.r(C)p.r(G)p.r(G)p.r(U)p.r(G)p.r(U)p.r(A)p.r(G)p.r(A)p.r(T)p.r(T)}$$$RNA1{StrandType:ss}|RNA2{StrandType:as}$	39%
RNA1{r(G)p.r(A)p.r(C)p.r(G)p.r(U)p.r(A)p.r(A)p.r(A)p.r(C)p.r(G)p.r(G)p.r(C)p.r(C)p.r(A)p.r(C)p.r(A)p.r(A)p.r(G)p.[hna](U)p.[hna](U)p.r(C)}|RNA2{[fl2r](A)p.m(C)p.[fl2r](U)p.m(U)p.[fl2r](G)p.m(U)p.[fl2r](G)p.m(G)p.[fl2r](C)p.m(C)p.[fl2r](G)p.m(U)p.[fl2r](U)p.m(U)p.[fl2r](A)p.m(C)p.[fl2r](G)p.m(U)p.[fl2r](C)p.m(G)p.[fl2r](C)}$$$RNA1{StrandType:ss}|RNA2{StrandType:as}$	45.8%
RNA1{r(G)p.r(A)p.r(C)p.r(G)p.[hna](U)p.r(A)p.r(A)p.[hna](A)p.r(C)p.r(G)p.[hna](G)p.r(C)p.r(C)p.[hna](A)p.r(C)p.r(A)p.r(A)p.r(G)p.[hna](U)p.r(U)p.d(T)}|RNA2{r(A)p.[hna](C)p.r(U)p.r(U)p.r(G)p.r(U)p.r(G)p.r(G)p.[hna](C)p.r(C)p.r(G)p.r(U)p.r(U)p.r(U)p.r(A)p.r(C)p.r(G)p.[hna](U)p.[hna](C)p.[hna](G)p.d(T)}$$$RNA1{StrandType:ss}|RNA2{StrandType:as}$	0%
RNA1{[lna](T)p.r(G)p.[lna](A)p.r(G)p.[lna](A)p.r(G)p.r(A)p.r(A)p.[lna](A)p.r(G)p.r(C)p.[lna](A)p.r(C)p.[lna](A)p.r(G)p.r(A)p.[lna](A)p.r(A)p.r(A)p.[lna](T)p.[lna](T)}|RNA2{r(U)p.r(U)p.r(U)p.r(U)p.r(C)p.r(U)p.r(G)p.r(U)p.r(G)p.r(C)p.r(U)p.r(U)p.r(U)p.r(C)p.r(U)p.r(C)p.r(U)p.r(C)p.r(A)p.r(T)p.r(T)}$$$RNA1{StrandType:ss}|RNA2{StrandType:as}$	68%
RNA1{r(A)p.r(G)p.r(C)p.r(G)p.r(G)p.r(G)p.r(G)p.m(U)p.r(A)p.m(U)p.r(G)p.r(A)p.r(A)p.r(G)p.m(A)p.r(G)p.r(C)p.r(U)p.r(U)p.r(T)p.r(T)}|RNA2{r(A)p.r(A)p.r(G)p.r(C)p.r(U)p.r(C)p.r(U)p.r(U)p.m(C)p.r(A)p.m(U)p.r(A)p.r(C)p.r(C)p.r(C)p.r(C)p.r(G)p.r(C)p.r(U)p.r(T)p.r(T)}$$$RNA1{StrandType:ss}|RNA2{StrandType:as}$	85%
RNA1{r(G)p.r(C)p.r(U)p.r(G)p.r(A)p.r(G)p.r(G)p.r(A)p.r(A)p.r(A)p.r(G)p.r(G)p.r(G)p.r(A)p.r(C)p.r(A)p.r(U)p.r(C)p.r(U)p.r(T)p.r(T)}|RNA2{r(A)p.r(G)p.m(A)p.m(U)p.r(G)p.r(U)p.r(C)p.r(C)p.r(C)p.r(U)p.r(U)p.r(U)p.r(C)p.r(C)p.r(U)p.r(C)p.r(A)p.r(G)p.r(C)p.r(T)p.r(T)}$$$RNA1{StrandType:ss}|RNA2{StrandType:as}$	78%
RNA1{r(A)p.r(U)p.r(C)p.m(G)p.r(A)p.r(C)p.r(C)p.m(U)p.r(G)p.r(A)p.r(A)p.r(G)p.r(G)p.r(A)p.r(G)p.m(U)p.r(A)p.r(C)p.r(G)p.r(T)p.r(T)}|RNA2{r(C)p.r(G)p.m(U)p.r(A)p.r(C)p.r(U)p.r(C)p.r(C)p.r(U)p.r(U)p.m(C)p.r(A)p.r(G)p.r(G)p.r(U)p.r(C)p.r(G)p.r(A)p.r(U)p.r(T)p.r(T)}$$$RNA1{StrandType:ss}|RNA2{StrandType:as}$	29%
RNA1{r(A)p.r(U)p.r(C)p.r(G)p.r(A)p.r(C)p.r(C)p.m(U)p.r(G)p.r(A)p.r(A)p.r(G)p.r(G)p.r(A)p.r(G)p.m(U)p.r(A)p.r(C)p.r(G)p.r(T)p.r(T)}|RNA2{r(C)p.r(G)p.m(U)p.r(A)p.r(C)p.r(U)p.r(C)p.r(C)p.r(U)p.r(U)p.r(C)p.r(A)p.r(G)p.r(G)p.r(U)p.r(C)p.r(G)p.r(A)p.r(U)p.r(T)p.r(T)}$$$RNA1{StrandType:ss}|RNA2{StrandType:as}$	30%
RNA1{[fl2r](C)p.r(G)p.[fl2r](G)p.r(G)p.[fl2r](U)p.r(A)p.[fl2r](C)p.r(G)p.[fl2r](A)p.r(G)p.[fl2r](C)p.r(C)p.[fl2r](G)p.r(G)p.[fl2r](A)p.r(A)p.[fl2r](C)p.r(C)p.r(U)p.r(T)p.r(T)}|RNA2{r(A)p.r(G)p.r(G)p.r(U)p.r(U)p.r(C)p.r(C)p.r(G)p.r(G)p.r(C)p.r(U)p.r(C)p.r(G)p.r(U)p.r(A)p.r(C)p.r(C)p.r(C)p.r(G)p.r(T)p.r(T)}$$$RNA1{StrandType:ss}|RNA2{StrandType:as}$	61%
RNA1{[fl2r](A)p.r(A)p.[fl2r](C)p.r(U)p.[fl2r](C)p.r(U)p.[fl2r](A)p.r(C)p.[fl2r](U)p.r(G)p.[fl2r](U)p.r(G)p.[fl2r](G)p.r(A)p.[fl2r](G)p.r(U)p.[fl2r](C)p.r(G)p.[fl2r](G)p.r(T)p.r(T)}|RNA2{r(C)p.r(C)p.[fl2r](G)p.r(A)p.r(C)p.r(U)p.r(C)p.r(C)p.r(A)p.r(C)p.r(A)p.[fl2r](G)p.r(U)p.r(A)p.[fl2r](G)p.r(A)p.[fl2r](G)p.r(U)p.r(U)p.r(T)p.r(T)}$$$RNA1{StrandType:ss}|RNA2{StrandType:as}$	25%
RNA1{r(A)p.r(A)p.r(C)p.r(C)p.r(C)p.r(A)p.r(C)p.r(C)p.r(A)p.r(C)p.r(A)p.r(G)p.r(C)p.r(U)p.r(A)p.r(G)p.r(A)p.r(A)p.r(C)p.r(U)p.r(U)}|RNA2{r(A)p.r(A)p.m(G)p.m(U)p.m(U)p.r(C)p.m(U)p.r(A)p.m(G)p.r(C)p.m(U)p.m(G)p.m(U)p.m(G)p.m(G)p.m(U)p.m(G)p.m(G)p.r(G)p.m(U)p.m(U)}$$$RNA1{StrandType:ss}|RNA2{StrandType:as}$	15%
RNA1{m(A)p.r(G)p.m(C)p.r(C)p.m(A)p.r(C)p.m(A)p.r(U)p.m(U)p.r(U)p.m(C)p.r(U)p.m(A)p.r(G)p.m(G)p.r(A)p.m(G)p.r(A)p.r(U)p.r(T)p.r(T)}|RNA2{r(A)p.r(U)p.r(C)p.r(U)p.r(C)p.r(C)p.r(U)p.r(A)p.r(G)p.r(A)p.r(A)p.r(A)p.r(U)p.r(G)p.r(U)p.r(G)p.r(G)p.r(C)p.r(U)p.r(T)p.r(T)}$$$RNA1{StrandType:ss}|RNA2{StrandType:as}$	19%
RNA1{r(G)p.r(U)p.r(A)p.r(U)p.r(G)p.r(A)p.r(C)p.r(C)p.r(G)p.r(A)p.r(C)p.r(U)p.r(A)p.r(C)p.r(G)p.r(C)p.r(G)p.r(U)p.r(A)p.r(T)p.r(T)}|RNA2{r(U)p.r(U)p.[una](C)p.r(A)p.r(G)p.r(U)p.r(G)p.r(U)p.r(G)p.r(A)p.r(U)p.r(G)p.r(A)p.r(C)p.r(A)p.r(C)p.r(U)p.r(U)p.r(G)p.r(T)p.r(T)}$$$RNA1{StrandType:ss}|RNA2{StrandType:as}$	45% and 50%
RNA1{[fl2r](C)p.[fl2r](U)p.r(A)p.[fl2r](G)p.r(A)p.r(G)p.[fl2r](G)p.r(A)p.[fl2r](U)p.[fl2r](C)p.[fl2r](U)p.[fl2r](U)p.r(G)p.r(A)p.[fl2r](A)p.r(G)p.r(A)p.[fl2r](C)p.[fl2r](C)p.r(T)p.r(T)}|RNA2{r(G)p.r(G)p.[fl2r](U)p.[fl2r](C)p.[fl2r](U)p.[fl2r](U)p.[fl2r](C)p.r(A)p.r(A)p.r(G)p.r(A)p.[fl2r](U)p.[fl2r](C)p.[fl2r](C)p.[fl2r](U)p.[fl2r](C)p.[fl2r](U)p.r(A)p.r(G)p.r(T)p.r(T)}$$$RNA1{StrandType:ss}|RNA2{StrandType:as}$	12%
RNA1{[lna](A)p.r(C)p.r(U)p.r(G)p.r(U)p.r(C)p.r(A)p.r(A)p.r(A)p.r(C)p.r(C)p.r(C)p.r(G)p.r(G)p.r(U)p.r(A)p.r(A)p.r(U)p.r(U)p.[lna](T)p.[lna](T)}|RNA2{r(A)p.r(A)p.r(U)p.r(U)p.r(A)p.r(C)p.r(C)p.r(G)p.r(G)p.r(G)p.r(U)p.r(U)p.r(U)p.r(G)p.r(A)p.r(C)p.r(A)p.r(G)p.r(U)p.[lna](T)p.[lna](T)}$$$RNA1{StrandType:ss}|RNA2{StrandType:as}$	52%
RNA1{[s4r](A)p.[s4r](A)p.r(A)p.r(C)p.r(A)p.r(U)p.r(G)p.r(C)p.r(A)p.r(G)p.r(A)p.r(A)p.r(A)p.r(A)p.r(U)p.r(G)p.r(C)p.r(U)p.r(G)p.r(T)p.r(T)}|RNA2{r(C)p.r(A)p.r(G)p.r(C)p.r(A)p.r(U)p.r(U)p.r(U)p.r(U)p.r(C)p.r(U)p.r(G)p.r(C)p.r(A)p.r(U)p.r(G)p.r(U)p.r(U)p.r(U)p.r(T)p.r(T)}$$$RNA1{StrandType:ss}|RNA2{StrandType:as}$	69.5%
RNA1{r(U)p.r(U)p.r(U)p.r(C)p.r(C)p.r(C)p.r(C)p.r(C)p.[fl2r](A)p.[fl2r](G)p.[fl2r](G)p.r(U)p.[fl2r](A)p.[fl2r](A)p.[fl2r](C)p.[fl2r](G)p.r(A)p.r(U)p.r(U)p.r(T)p.r(T)}|RNA2{r(A)p.r(A)p.r(U)p.r(C)p.r(G)p.r(U)p.r(U)p.r(A)p.r(C)p.r(C)p.r(U)p.r(G)p.r(G)p.r(G)p.r(G)p.r(G)p.r(A)p.r(A)p.r(A)p.r(T)p.r(T)}$$$RNA1{StrandType:ss}|RNA2{StrandType:as}$	78%
RNA1{r(C)p.r(U)p.r(U)p.r(A)p.r(C)p.r(G)p.r(C)p.r(U)p.r(G)p.r(A)p.r(G)p.r(U)p.r(A)p.r(C)p.r(U)p.r(U)p.r(C)p.r(G)p.r(A)p.r(T)p.r(T)}|RNA2{r(U)p.[lna](C)p.r(G)p.r(A)p.r(A)p.r(G)p.r(U)p.r(A)p.r(C)p.r(U)p.r(C)p.r(A)p.r(G)p.r(C)p.r(G)p.r(U)p.r(A)p.r(A)p.r(G)p.r(T)p.r(T)}$$$RNA1{StrandType:ss}|RNA2{StrandType:as}$	0%
RNA1{r(A)p.[fl2r](A)p.r(G)p.r(G)p.r(C)p.[fl2r](C)p.r(A)p.r(A)p.r(C)p.r(C)p.r(G)p.r(A)p.[fl2r](U)p.r(A)p.r(C)p.r(U)p.r(U)p.r(C)p.r(U)p.r(T)p.r(T)}|RNA2{r(A)p.r(G)p.r(A)p.r(A)p.r(G)p.[fl2r](U)p.r(A)p.r(U)p.r(C)p.r(G)p.r(G)p.r(U)p.[fl2r](U)p.r(G)p.r(G)p.r(C)p.r(C)p.r(U)p.r(U)p.r(T)p.r(T)}$$$RNA1{StrandType:ss}|RNA2{StrandType:as}$	68%

Reference: the OligoGym collection
